How the values were obtained:
Ehrlich [1] = experiment: Cytotoxicity against Ehrlich ascites carcinoma cells at 125 ug/ml; format: functional, Mus musculus
Ehrlich [2] = experiment: Cytotoxicity against Ehrlich ascites carcinoma cells at 500 ug/ml; format: functional, Mus musculus
Ehrlich [3] = experiment: Cytotoxicity against Ehrlich ascites carcinoma cells at 250 ug/ml; format: functional, Mus musculus
Mus musculus [4] = experiment: Increase in life span in Ehrlich carcinoma bearing Swiss Albino mice 9 days post dose at 3.5 mg/kg, ip; format: functional, organism-based; set-up: dose 3.5 mg/kg
Mus musculus [5] = experiment: Median survival time in Ehrlich carcinoma bearing Swiss Albino mice 9 days post dose at 3.5 mg/kg, ip; format: functional, organism-based; set-up: dose 3.5 mg/kg
Mus musculus [6] = experiment: Effect on weight variation in Ehrlich carcinoma bearing Swiss Albino mice 9 days post dose at 3.5 mg/kg, ip; format: functional, organism-based; set-up: dose 3.5 mg/kg
Mus musculus [7] = experiment: Effect on weight variation in Ehrlich carcinoma bearing Swiss Albino mice 9 days post dose administered ip; format: functional
Mus musculus [8] = experiment: Median survival time in Ehrlich carcinoma bearing Swiss Albino mice 9 days post dose administered ip; format: functional
Mus musculus [9] = experiment: Increase in life span in Ehrlich carcinoma bearing Swiss Albino mice 9 days post dose administered ip; format: functional

O=Cc1c(N2CCCCC2)oc2ccc(Cl)cc2c1=O
Activity (Ehrlich [1]): 100%
Activity (Ehrlich [2]): 100%
Activity (Ehrlich [3]): 100%

CISPLATIN
Activity (Mus musculus [4]): 75.4%
MST (Mus musculus [5]): 17.3 days
Activity (Mus musculus [6]): -17.3%

O=Cc1c(N2CCCC2)oc2ccc(Cl)cc2c1=O
Activity (Ehrlich [1]): 90%
Activity (Ehrlich [2]): 100%
Activity (Ehrlich [3]): 100%

CN1CCN(c2oc3ccc(Cl)cc3c(=O)c2C=O)CC1
Activity (Ehrlich [1]): 50%
Activity (Ehrlich [2]): 60%
Activity (Ehrlich [3]): 60%

CN1CCN(c2cc3oc(N4CCN(C)CC4)c(C=O)c(=O)c3cc2F)CC1
Activity (Ehrlich [1]): 0%
Activity (Ehrlich [2]): 20%
Activity (Ehrlich [3]): 0%

O=Cc1c(N2CCOCC2)oc2ccc(Cl)cc2c1=O
Activity (Mus musculus [7]): -16.81%
MST (Mus musculus [8]): 12 days
Activity (Ehrlich [1]): 60%
Activity (Ehrlich [2]): 100%
Activity (Ehrlich [3]): 100%
Activity (Mus musculus [9]): 23.1%

O=Cc1c(N2CCOCC2)oc2cc(N3CCOCC3)c(F)cc2c1=O
Activity (Mus musculus [7]): -15.89%
MST (Mus musculus [8]): 11.14 days
Activity (Ehrlich [1]): 0%
Activity (Ehrlich [2]): 70%
Activity (Ehrlich [3]): 0%
Activity (Mus musculus [9]): 16.9%

O=Cc1c(N2CCCCC2)oc2cc(N3CCCCC3)c(F)cc2c1=O
Activity (Mus musculus [7]): -9.5%
MST (Mus musculus [8]): 11.6 days
Activity (Ehrlich [1]): 100%
Activity (Ehrlich [2]): 100%
Activity (Ehrlich [3]): 100%
Activity (Mus musculus [9]): 17.9%
